For 15 molecules, IC50 results are on record in patent US12319655B2, “RAF kinase inhibitors and methods of use thereof” (Deciphera Pharmaceuticals, LLC, priority 2021, dated 2025).

In assay [1] the target is C-Raf kinase (SEQ. ID NO: 3) (Homo sapiens (Human), UniProt P04049, Y340D/Y341D). Kind of assay: Biochemical Assay for C-Raf (1). The following applies: Table J, assay version (1); read-out: CRAF (1) IC50. The procedure, abridged: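 IC50 values come from a four-parameter fit of percent inhibition, using the reaction rate over 4–5 h of a 6 h continuous 340 nm read at 30 °C. The enzyme mix was C-Raf 0.43 nM, MEK substrate 30.1 nM and ATP 1 mM, in a PK/LDH NADH-coupled format in Tris pH 7.5 with 1% DMSO.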
Sequence of C-Raf kinase (SEQ. ID NO: 3) (P04049 307-648 Y340D/Y341D): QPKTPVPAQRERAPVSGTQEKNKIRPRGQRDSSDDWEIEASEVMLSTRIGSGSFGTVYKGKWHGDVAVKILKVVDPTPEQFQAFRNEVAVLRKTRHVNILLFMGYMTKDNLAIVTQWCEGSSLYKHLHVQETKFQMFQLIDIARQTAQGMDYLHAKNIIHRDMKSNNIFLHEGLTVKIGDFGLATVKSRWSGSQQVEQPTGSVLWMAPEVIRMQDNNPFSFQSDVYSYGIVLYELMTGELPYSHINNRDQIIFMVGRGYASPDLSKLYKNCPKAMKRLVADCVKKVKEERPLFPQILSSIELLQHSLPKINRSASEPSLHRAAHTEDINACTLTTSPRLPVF

For the next assay, the system named is H2405 cells. Kind of assay: H2405 Cell Proliferation Assay (1). The class given is cell-based. As to conditions: Homo sapiens, NCI-H2405. Here is the method: H2405 Cell Proliferation Assay (1)
(§1) H2405 cells (catalog #CRL-5994) are obtained from the American Type Culture Collect (ATTC, Manassas, VA). Briefly, cells were grown in RPMI 1640 supplemented with 5% characterized fetal bovine serum (Invitrogen, Carlsbad, CA) and 1% Penicillin/Streptomycin/L-Glutamine at 37° C., 5% CO2, and 95% humidity. Cells are expanded until reaching 70-95% confluency at which point they are sub-cultured or harvested for assay use. A serial dilution of test compound is dispensed into a 96-well black clear bottom plate in triplicate. Three thousand cells are added per well in 200 μL complete growth medium in the 96-well plate. Plates are incubated for 67-72 h at 37° C., 5% CO2, and 95% humidity. At the end of the incubation, 40 μL of a 440 μM solution of resazurin (Sigma, St. Louis, MO) in PBS is added to each well of the plate and plates are incubated for an additional 5-6 h at 37° C., 5% CO2, and 95% humidity. Plates are read on a Synergy2 or equivalent reader (Biotek, Winooski VT) using an excitation of 540 nm and an emission of 600 nm. Data is analyzed using Prism software (GraphPad, San Diego, CA) to calculate IC50 values.

Assay [2] deals with A-Raf kinase (SEQ. ID No: 1) (Homo sapiens (Human), UniProt P10398, Y301D/Y302D). Kind of assay: Biochemical Assay for A-Raf (1). As to conditions: Table J, assay version (1); read-out: ARAF (1) IC50. The procedure, abridged:
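IC50 values were derived by four-parameter sigmoidal fitting of percent inhibition, calculated from reaction rates over the 4–5 h window. Absorbance at 340 nm was tracked for 6 h at 30 °C via coupled PK/LDH NADH depletion. Conditions: 1 mM ATP, 30.1 nM MEK substrate, 5.55 nM A-Raf (Y301D/Y302D), Tris pH 7.5, 1% DMSO.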

The next assay has as its system A375 cells. Kind of assay: A375 Cell Proliferation Assay (1). In kind it is cell-based. As to conditions: Homo sapiens, A-375. On the procedure:
A375 Cell Proliferation Assay (1)
as §1, with “A375 cells” for “H2405 cells”, “(catalog (#CRL-1619)” for “(catalog #CRL-5994)”, “in DMEM High Glucose” for “in RPMI 1640”, “with 10%” for “with 5%”, “triplicate. Two” for “triplicate. Three”, “thousand five hundred” for “thousand”

In assay [3] the target is B-Raf kinase (SEQ. ID NO: 2) (Homo sapiens (Human), UniProt P15056). Kind of assay: Biochemical Assay for B-Raf (1). As to conditions: Table J, assay version (1); read-out: BRAF (1) IC50. The procedure, abridged:
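IC50 derived by four-parameter sigmoidal fit of percent inhibition, normalised to uninhibited and reference-inhibitor controls, using reaction rates over 4–5 h. Coupled spectrophotometric readout (NADH loss at 340 nm, 6 h, 30° C.); 1 mM ATP, 30.1 nM MEK, 0.13 nM B-Raf, pH 7.5 Tris buffer, 1% DMSO.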

Assay [4] deals with B-Raf (V600E) (SEQ. ID NO: 4) kinase (Homo sapiens (Human), UniProt P15056, V600E). Kind of assay: Biochemical Assay for B-Raf (V600E) (1). As to conditions: Table J, BRAF V600E, assay version (1); read-out: BRAF VE (1) IC50. The procedure, abridged: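 Serially diluted compounds tested against 0.03 nM enzyme with 30.1 nM MEK substrate and 1 mM ATP (Tris pH 7.5, 15 mM MgCl2), ATP use coupled to NADH loss via PK/LDH. A340 monitored continuously 6 h, 30 °C; IC50 fitted (four-parameter) from the 3–4 h rate versus no-compound and known-inhibitor controls.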
Sequence of B-Raf (V600E) (SEQ. ID NO: 4) kinase (P15056 416-766 V600E): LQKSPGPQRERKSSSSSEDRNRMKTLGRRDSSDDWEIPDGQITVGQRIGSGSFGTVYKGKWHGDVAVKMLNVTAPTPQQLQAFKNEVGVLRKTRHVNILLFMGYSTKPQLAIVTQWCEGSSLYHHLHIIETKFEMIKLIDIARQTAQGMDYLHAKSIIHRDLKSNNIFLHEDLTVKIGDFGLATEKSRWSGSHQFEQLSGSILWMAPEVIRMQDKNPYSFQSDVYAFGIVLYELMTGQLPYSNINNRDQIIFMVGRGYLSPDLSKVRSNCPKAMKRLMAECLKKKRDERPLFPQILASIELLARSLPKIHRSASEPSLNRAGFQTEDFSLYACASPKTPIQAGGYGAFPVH

The test system of a further assay is Miapaca-2 cells. Kind of assay: MiaPaca-2 Cell Proliferation Assay (1). As to conditions: Homo sapiens, MIA PaCa-2, single agent, read-out: MiaPaca2 (1) IC50. The class given is cell-based. Here is the method: MiaPaca-2 Cell Proliferation Assay (1)
as §1, with “Miapaca-2 cells” for “H2405 cells”, “(catalog #CRL-1420)” for “(catalog #CRL-5994)”, “in DMEM” for “in RPMI 1640”, “with 10%” for “with 5%”, “Carlsbad, CA), 2.5% New Zealand sourced horse serum” for “Carlsbad, CA)”

The structures appear in SMILES notation.

Sequence of A-Raf kinase (SEQ. ID No: 1) (P10398 other isoform, or with tags, fused parts or gaps Y301D (already in the parent)/Y302D (already in the parent)): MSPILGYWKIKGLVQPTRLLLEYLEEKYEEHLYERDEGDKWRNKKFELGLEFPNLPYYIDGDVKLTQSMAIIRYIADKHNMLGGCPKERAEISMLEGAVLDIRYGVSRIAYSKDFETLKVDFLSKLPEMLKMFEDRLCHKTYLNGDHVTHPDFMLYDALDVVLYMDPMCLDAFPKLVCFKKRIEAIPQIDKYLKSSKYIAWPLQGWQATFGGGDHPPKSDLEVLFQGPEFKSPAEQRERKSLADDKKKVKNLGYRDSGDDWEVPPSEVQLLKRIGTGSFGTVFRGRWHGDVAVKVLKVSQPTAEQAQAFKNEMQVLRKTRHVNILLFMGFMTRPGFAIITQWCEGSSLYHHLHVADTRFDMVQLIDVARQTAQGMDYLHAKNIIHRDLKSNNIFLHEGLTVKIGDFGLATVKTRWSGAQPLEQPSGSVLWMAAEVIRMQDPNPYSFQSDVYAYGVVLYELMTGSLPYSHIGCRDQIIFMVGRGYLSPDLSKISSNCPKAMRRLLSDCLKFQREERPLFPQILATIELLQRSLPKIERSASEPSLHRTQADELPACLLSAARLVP
Sequence of B-Raf kinase (SEQ. ID NO: 2) (P15056 416-766): as the sequence (P15056 416-766 V600E) above, with E185V counted along it

Take `CNc1cc(-c2cccc(-c3cc(NC(=O)c4ccnc(C(C)(C)C#N)c4)cnc3C)c2)ncn1` [Example 227]: the IC50 in assay [1] fell in the range of 100 to 500 nM; in the assay with H2405 cells, 1000 to 10000 nM; in assay [2], 1000 to 10000 nM; with A375 cells, 1000 to 10000 nM; in assay [3], 100 to 500 nM.
For the molecule `Cc1ccc(NC(=O)c2ccnc(C(F)(F)F)c2)cc1-c1ccnc(-c2cncnc2)c1` [Example 45], the IC50 in assay [1] is at most 100 nM; in assay [4], at most 100 nM; in assay [2], 1000 to 10000 nM; in the assay on A375 cells it was 1000 to 10000 nM; in assay [3], at most 100 nM.
`Cc1ncc(NC(=O)c2ccnc(C(C)(C)C#N)c2)cc1-c1cccc(-c2ccnc(N)n2)c1` [Example 289]: the IC50 is 100 to 500 nM in assay [1]; at most 100 nM in assay [4]; 1000 to 10000 nM in assay [2]; 1000 to 10000 nM in the assay with A375 cells; 100 to 500 nM in assay [3].
As for `Cc1ncc(NC(=O)c2ccnc(C3(C#N)CC3)c2)cc1-c1nccc(-c2ccnc(NC(=O)C3CC3)c2)n1` [Example 293], the IC50 in assay [1] is at most 100 nM; in assay [4], at most 100 nM; in assay [2], 1000 to 10000 nM; in the assay on A375 cells, 100 to 500 nM; in assay [3] it was at most 100 nM.
Regarding `Cc1ccc(NC(=O)c2ccnc(C(C)(C)C#N)c2)cc1-c1ccnc(-c2ccncc2)c1` [Example 55], the IC50 fell in the range of 1000 to 10000 nM with Miapaca-2 cells, 1000 to 10000 nM in assay [2] and 500 to 1000 nM in the assay with A375 cells.
For `Cc1ccc(NC(=O)c2ccnc(C(F)(F)F)c2)cc1-c1cccc(-c2ccnc(N)c2)c1` [Example 38], the IC50 in assay [1] was at most 100 nM; in assay [4] it was at most 100 nM; in assay [2] it was 1000 to 10000 nM; in the assay with A375 cells it was 1000 to 10000 nM; in assay [3] it was at most 100 nM.
`CCOc1cc(-c2cc(NC(=O)c3ccnc(C(F)(F)F)c3)c(F)cc2C)cc(-c2ccnc(NC(C)=O)c2)n1` [Example 9]: the IC50 in assay [1] is at most 100 nM; in assay [4], at most 100 nM; in assay [2], 1000 to 10000 nM; in the assay on A375 cells, 100 to 500 nM; in assay [3], 100 to 500 nM.
Regarding `Cc1ccc(NC(=O)c2ccnc(C(F)(F)F)c2)cc1-c1ccnc(-c2ccnc(NC(=O)CC#N)c2)n1` [Example 144], the IC50 in assay [1] is at most 100 nM; in assay [4], at most 100 nM; in assay [2], 100 to 500 nM; in the assay on A375 cells it was 500 to 1000 nM; in assay [3], at most 100 nM.
For the molecule `Cc1ccc(NC(=O)c2ccnc(C(F)(F)F)c2)cc1-c1ccnc(-c2ccncc2)c1` [Example 44], the IC50 is at most 100 nM in assay [1]; at most 100 nM in assay [4]; 1000 to 10000 nM in assay [2]; 1000 to 10000 nM in the assay on A375 cells; at most 100 nM in assay [3].
Regarding `Cc1ccc(NC(=O)c2ccnc(C(F)(F)F)c2)cc1-c1cc(-c2ccnc(N)c2)n(C)c(=O)c1` [Example 53], the IC50 in assay [1] was 100 to 500 nM; in the assay on H2405 cells, 1000 to 10000 nM; in assay [2], 1000 to 10000 nM; with A375 cells, 1000 to 10000 nM; in assay [3], 500 to 1000 nM.
On to `CNC(=O)c1cc(-c2cc(-c3cc(NC(=O)c4ccnc(C(F)(F)F)c4)ccc3F)cc(C)n2)ccn1` [Example 66], for which the IC50 in assay [1] was at most 100 nM; in assay [4], at most 100 nM; in assay [2] it was 1000 to 10000 nM; with A375 cells it was 1000 to 10000 nM; in assay [3], 1000 to 10000 nM.
Consider `CC(=O)Nc1cc(-c2nccc(-c3cc(NC(=O)c4ccnc(C(C)(C)C#N)c4)cnc3C)n2)ccn1` [Example 195], for which the IC50 is at most 100 nM in assay [1]; at most 100 nM in assay [4]; 1000 to 10000 nM in assay [2]; 100 to 500 nM in the assay on A375 cells; at most 100 nM in assay [3].
Consider `CC(=O)Nc1cc(-c2cc(-c3cc(NC(=O)c4ccnc(C(F)(F)F)c4)c(F)cc3C)cc(=O)n2C)ccn1` [Example 155], for which the IC50 in assay [1] is 100 to 500 nM; in assay [4], at most 100 nM; in assay [2] it was 1000 to 10000 nM; with A375 cells it was 1000 to 10000 nM; in assay [3] it was 100 to 500 nM.
In the case of `Cc1ncc(NC(=O)c2ccnc(C(F)(F)F)c2)cc1-c1cccc(-c2ccnc(NC(=O)CN(C)C)c2)c1` [Example 95], the IC50 in assay [1] is at most 100 nM; in assay [4], at most 100 nM; in assay [2] it was 1000 to 10000 nM; in the assay on A375 cells, 500 to 1000 nM; in assay [3] it was at most 100 nM.
Turning to `COC(C)(C)c1cc(C(=O)Nc2ccc(C)c(-c3nccc(-c4ccnc(NC(=O)C5CC5)c4)n3)c2)ccn1` [Example 239], the IC50 is at most 100 nM in assay [1]; at most 100 nM in assay [4]; 500 to 1000 nM in assay [2]; at most 100 nM in the assay with A375 cells; at most 100 nM in assay [3].

In general, IC50 refers to the concentration that inhibits the measured activity by half.
